Data taken from US20210253520A1, “POLYMYXIN-BASED COMPOUNDS USEFUL AS ANTIBACTERIAL AGENTS” (UNIVERSITAT DE BARCELONA, priority 2018, published 2021).
Like-named read-outs stand apart in the source and are kept apart here. Numbered stars: 1 amine (or outer) side, 2 acyl side, 3 side chain; on linkers, the order of the positions; unused ones are H or OH. Bridge positions count the residues as written; N and C are the ends. Square brackets hold non-standard residues; d marks the D form. Peptide text beside a SMILES is read from it. X1 = C[C@@H](O)[C@@H](CS[*:1])N[*:2]; dGly(nOct) = CCCCCCCC[C@@H](N)C(=O)O; Dab = NCC[C@H](N)C(=O)O

Key:
K. pneumoniae MB674 [1] = conditions: comparative examples, extracted from Scientific Reports 5:10558 or WO2017093210A1; cited from earlier work
P. aeruginosa 36A [2] = conditions: comparative examples, extracted from Scientific Reports 5:10558 or WO2017093210A1; cited from earlier work
E. coli MB1410 [3] = conditions: comparative examples, extracted from Scientific Reports 5:10558 or WO2017093210A1; cited from earlier work
Swiss CD-1 female mice = test: Nephrotoxicity study, histopathological scoring of kidney lesions; assay type: in vivo; design: key to Group Score (GS): mean of per-animal summed 0-4 lesion scores; higher = more nephrotoxic; key to Animal Score (AS), Partial AS: sum of 0-4 lesion parameter scores; higher = more nephrotoxic; conditions: for nephrotoxicity in mice, in words: nephrotoxicity tests carried out in mice, statement of the background; for Animal Score (AS), Partial AS: sum over all mice
Method: Swiss CD-1 female mice weighing approximately 20-24 g (JANVIER Labs) were used, housed in an individually ventilated cage system under specific pathogen-free conditions, and water and food supplied ad libitum. This study plan and the conduct of the study were subjected to review by the Scientific Park of Barcelona Ethical Review Process with the current study procedure Code CEEA (AR) 9377-P2. Mice were administered at a dose of 12 mg/Kg every 2 hours for a total of 6 administrations (total dose 72 mg/Kg), unless otherwise stated. After 20 h, animals were anesthesized with isoflurane, kidneys extracted and prepared for histopathological evaluation, and finally animales were sacrificed. Kidney lesions (tubule dilation, necrosis, tubule casts, cell vacuolization, cell desquamation, and cell swelling) were quantified by microscopical observation (see for instance, Roberts, ACS Infect. Dis., 2015, 1, 568). Each one of these parameters was scored with values from 0 to 4 for each animal, as a global result of observations in kidney. Partial scores have been added up to obtain a final score for each animal (Animal Score, AS). The mean of animal score has been obtained to define the Group Score (GS). The higher the score, the more nephrotoxic a compound is. The nephrotoxicity score has been determined as according to the following table of approximated values: […]

E. coli ATCC 25922 [4] = conditions: comparative examples, extracted from Scientific Reports 5:10558 or WO2017093210A1; cited from earlier work
P. aeruginosa ATCC 27853 [5] = conditions: comparative examples, extracted from Scientific Reports 5:10558 or WO2017093210A1; cited from earlier work
[6] = in vivo; cited from earlier work
K. pneumoniae MB674 [7] = assay type: cell-based
Method: (§1) The antibacterial activity of the polymyxin lipopeptides was measured at ISGlobal following the microdilution test to determine the Minimal Inhibitory Concentrations (MIC) in sterile 96-well polypropilene plates. The concentration range was 32 a […] in Iso-Sensitest broth (Oxoid, ThermoFisher). The results were carried out in triplicate and the highest MIC is the one shown. Bacterial strains were grown in blood agar plates at 37° C. for 17 h. Fresh colonies were used to prepare a McFarland 0.5 solution that was finally added to the plates at 1 to 100 dilution
(§2) Samples of sensitive and multi-drug resistant bacteria were: E. coli ATCC 25922 E. coli MB1410; K. pneumoniae MB674; P. aeruginosa ATCC 27853; P. aeruginosa 36A.

P. aeruginosa 36A [8] = test: microbe, parasite or virus in culture; assay type: cell-based
Method: as §1, §2

P. aeruginosa ATCC 27853 [9] = test: microbe, parasite or virus in culture; assay type: cell-based
Method: as §1, §2

E. coli MB1410 [10] = test: microbe, parasite or virus in culture; assay type: cell-based
Method: as §1, §2

E. coli ATCC 25922 [11] = test: microbe, parasite or virus in culture; assay type: cell-based
Method: as §1, §2

[12] = cited from earlier work
[13] = Table 8, 12 mg/Kg every 2 hours × 6 sc, total 72 mg/Kg, 3 mice
[14] = Table 6, 12 mg/Kg every 2 hours × 6, subcutaneous, total 72 mg/Kg
[15] = Table 6, mean of animal scores, 12 mg/Kg every 2 hours × 6, subcutaneous, total 72 mg/Kg
[16] = Table 6, sum of mouse scores, 12 mg/Kg every 2 hours × 6, subcutaneous, total 72 mg/Kg
[17] = Table 7, 8 mg/Kg every 2 hours × 6, total 48 mg/Kg

## Heptanoyl-Dab-Thr-Dab-cyclo(S-S)[Cys-Dab-DAoc-Nle-Dab-Dab-DCys] [compound 3]
K. pneumoniae MB674 [1]
  antibacterial activity (MIC): 2 µg/mL
P. aeruginosa 36A [2]
  antibacterial activity (MIC): 2 µg/mL
E. coli MB1410 [3]
  antibacterial activity (MIC): 2 µg/mL
Swiss CD-1 female mice; [13]
  AS, Partial AS: 8
  Cell vacuolization, Partial AS: 3
  Group Score (GS): 8
  Mice found dead: 2 dead
  Tubular dilaion, Partial AS: 2
  Tubular necrosis, Partial AS: 3
Swiss CD-1 female mice
  nephrotoxicity in mice, in words: showed nephrotoxicity
E. coli ATCC 25922 [4]
  antibacterial activity (MIC): 16 µg/mL
P. aeruginosa ATCC 27853 [5]
  antibacterial activity (MIC): 2 µg/mL

## Decanoyl-Dab-Thr-Dab-cyclo(S-S)[Cys-Dab-DPhe-Nle-Dab-Dab-DCys] [compound 2]
[6]
  toxicity in acute toxicity tests, in words: did not showed toxicity
Swiss CD-1 female mice; [13]
  AS, Partial AS: 4
  Cell vacuolization, Partial AS: 0
  Cloudy swelling, Partial AS: 3
  Group Score (GS): 4
  Mice found dead: 2 dead
  Tubular casts, Partial AS: 0
  Tubular dilaion, Partial AS: 1
  Tubular necrosis, Partial AS: 0
Swiss CD-1 female mice; listed as Decanoyl-Dab-Thr-Dab-ciclo(S—S)[Cys-Dab-DPhe-Nle-Dab-Dab-DCys)
  nephrotoxicity in mice, in words: showed toxicity
Swiss CD-1 female mice; listed as Decanoyl-Dab-Thr-Dab-cyclo(S—S)[Cys-Dab-DPhe-Leu-Dab-Dab-DCys]
  nephrotoxicity in mice, in words: showed nephrotoxicity

## DAoc-Thr-Dab-cyclo(S-S)[Cys-Dab-DNIe-Leu-Dab-Dab-DCys] [compound 5]
K. pneumoniae MB674 [1]
  antibacterial activity (MIC): 8 µg/mL
P. aeruginosa 36A [2]
  antibacterial activity (MIC): 2 µg/mL
E. coli MB1410 [3]
  antibacterial activity (MIC): 8 µg/mL
Swiss CD-1 female mice; [13]
  AS, Partial AS: 13
  Cell vacuolization, Partial AS: 0
  Cloudy swelling, Partial AS: 4
  Group Score (GS): 4.3
  Mice found dead: none
  Tubular casts, Partial AS: 3
  Tubular dilaion, Partial AS: 6
  Tubular necrosis, Partial AS: 0
Swiss CD-1 female mice
  nephrotoxicity in mice, in words: showed nephrotoxicity
E. coli ATCC 25922 [4]
  antibacterial activity (MIC): 16 µg/mL
P. aeruginosa ATCC 27853 [5]
  antibacterial activity (MIC): 4 µg/mL

## DAoc-Thr-Dab-cyclo(S-S)[Cys-Dab-DAoc-Leu-Dab-Dab-DCys] [compound 4]
K. pneumoniae MB674 [1]
  antibacterial activity (MIC): 2 µg/mL
P. aeruginosa 36A [2]
  antibacterial activity (MIC): 2 µg/mL
E. coli MB1410 [3]
  antibacterial activity (MIC): 4 µg/mL
Swiss CD-1 female mice; [13]
  Group Score (GS): All mice dead
  Mice found dead: 3
Swiss CD-1 female mice
  nephrotoxicity in mice, in words: showed nephrotoxicity
E. coli ATCC 25922 [4]
  antibacterial activity (MIC): 4 µg/mL
P. aeruginosa ATCC 27853 [5]
  antibacterial activity (MIC): 2 µg/mL

## CCCCCCCC[C@@H](N)C(=O)N[C@H](C(=O)N[C@@H](CCN)C(=O)N[C@H]1CSSC[C@H]([C@@H](C)O)NC(=O)[C@H](CCN)NC(=O)[C@H](CCN)NC(=O)[C@H](CC(C)C)NC(=O)[C@@H](CC(C)C)NC(=O)[C@H](CCN)NC1=O)[C@@H](C)O [Example 6, DAdec-Thr-Dab-cyclo(S-S)[Cys-Dab-DLeu-Leu-Dab-Dab-Ttr]] (H-[dGly(nOct)]T[Dab]C[Dab][dL]L[Dab][Dab]; linker 4-C via X1; N-terminus assumed)
K. pneumoniae MB674 [7]; MB674
  antibacterial activity (MIC): 0.5 µg/mL
Swiss CD-1 female mice; [14]
  Mice found dead: 2
  Animal Score (AS), Partial AS: 6
Swiss CD-1 female mice; [15]
  Group Score (GS): 1
Swiss CD-1 female mice; [16]
  Cell desquamation, Partial AS: 0
  Cell vacuolization, Partial AS: 0
  Cloudy swelling, Partial AS: 5
  Tubular casts, Partial AS: 1
  Tubular dilation, Partial AS: 0
  Tubular necrosis, Partial AS: 0
Swiss CD-1 female mice; [17]
  AS, Partial AS: 1
  Cell vacuolization, Partial AS: 0
  Cloudy swelling, Partial AS: 1
  Group Score (GS): 0.2
  Mice found dead: None
  Tubular casts, Partial AS: 0
  Tubular dilation, Partial AS: 0
  Tubular necrosis, Partial AS: 0
P. aeruginosa 36A [8]; 36A
  antibacterial activity (MIC): 0.5 µg/mL
P. aeruginosa ATCC 27853 [9]; ATCC 27853
  antibacterial activity (MIC): 1 µg/mL
E. coli MB1410 [10]; MB1410
  antibacterial activity (MIC): 0.5 µg/mL
E. coli ATCC 25922 [11]; ATCC 25922
  antibacterial activity (MIC): 2 µg/mL

## Colistin [Col.]
K. pneumoniae MB674 [1]
  antibacterial activity (MIC): 1 µg/mL
P. aeruginosa 36A [2]
  antibacterial activity (MIC): 1 µg/mL
K. pneumoniae MB674 [7]; resistance profile of strain K. pneumoniae MB674, Table 3
  MIC: 0.2 µg/mL
E. coli MB1410 [3]
  antibacterial activity (MIC): 0.5 µg/mL
E. coli ATCC 25922 [4]
  antibacterial activity (MIC): 0.5 µg/mL
P. aeruginosa 36A [8]; resistance profile of strain P. aeruginosa 36A, Table 3
  MIC: 1 µg/mL
P. aeruginosa ATCC 27853 [9]; resistance profile of strain P. aeruginosa ATCC 27853, Table 3
  MIC: 2 µg/mL
E. coli MB1410 [10]; resistance profile of strain E. coli MB1410, Table 3
  MIC: 0.75 µg/mL
E. coli ATCC 25922 [11]; resistance profile of strain E. coli ATCC 25922, Table 3
  MIC: 0.5 µg/mL
P. aeruginosa ATCC 27853 [5]
  antibacterial activity (MIC): 2 µg/mL

## Polymyxin B [PxB]
K. pneumoniae MB674 [1]
  antibacterial activity (MIC): 0.25 µg/mL
P. aeruginosa 36A [2]
  antibacterial activity (MIC): 1 µg/mL
E. coli MB1410 [3]
  antibacterial activity (MIC): 0.5 µg/mL
Swiss CD-1 female mice; [14]
  Mice found dead: None
  Animal Score (AS), Partial AS: 27
Swiss CD-1 female mice; [15]
  Group Score (GS): 3.4
Swiss CD-1 female mice; [16]
  Cell desquamation, Partial AS: 0
  Cell vacuolization, Partial AS: 1
  Cloudy swelling, Partial AS: 21
  Tubular casts, Partial AS: 3
  Tubular dilation, Partial AS: 1
  Tubular necrosis, Partial AS: 1
Swiss CD-1 female mice; [13]
  AS, Partial AS: 7
  Cell vacuolization, Partial AS: 0
  Cloudy swelling, Partial AS: 6
  Group Score (GS): 2.3
  Mice found dead: none
  Tubular casts, Partial AS: 0
  Tubular dilaion, Partial AS: 1
  Tubular necrosis, Partial AS: 0
E. coli ATCC 25922 [4]
  antibacterial activity (MIC): 0.25 µg/mL
[12]; after 6 h
  kidney concentration relative to serum concentration: more than 30 time
[12]; long after administration, when barely detectable in serum
  period of accumulation in kidneys: at least 48 h
P. aeruginosa ATCC 27853 [5]
  antibacterial activity (MIC): 1 µg/mL
